Reference: PMC12380353, “MK-8527 is a novel inhibitor of HIV-1 reverse transcriptase translocation with potential for extended-duration dosing” (PLOS Biology, 2025)

Target: T1, human DNA polymerase α (Homo sapiens, UniProt P09884)
T1 sequence (P09884 1-1462): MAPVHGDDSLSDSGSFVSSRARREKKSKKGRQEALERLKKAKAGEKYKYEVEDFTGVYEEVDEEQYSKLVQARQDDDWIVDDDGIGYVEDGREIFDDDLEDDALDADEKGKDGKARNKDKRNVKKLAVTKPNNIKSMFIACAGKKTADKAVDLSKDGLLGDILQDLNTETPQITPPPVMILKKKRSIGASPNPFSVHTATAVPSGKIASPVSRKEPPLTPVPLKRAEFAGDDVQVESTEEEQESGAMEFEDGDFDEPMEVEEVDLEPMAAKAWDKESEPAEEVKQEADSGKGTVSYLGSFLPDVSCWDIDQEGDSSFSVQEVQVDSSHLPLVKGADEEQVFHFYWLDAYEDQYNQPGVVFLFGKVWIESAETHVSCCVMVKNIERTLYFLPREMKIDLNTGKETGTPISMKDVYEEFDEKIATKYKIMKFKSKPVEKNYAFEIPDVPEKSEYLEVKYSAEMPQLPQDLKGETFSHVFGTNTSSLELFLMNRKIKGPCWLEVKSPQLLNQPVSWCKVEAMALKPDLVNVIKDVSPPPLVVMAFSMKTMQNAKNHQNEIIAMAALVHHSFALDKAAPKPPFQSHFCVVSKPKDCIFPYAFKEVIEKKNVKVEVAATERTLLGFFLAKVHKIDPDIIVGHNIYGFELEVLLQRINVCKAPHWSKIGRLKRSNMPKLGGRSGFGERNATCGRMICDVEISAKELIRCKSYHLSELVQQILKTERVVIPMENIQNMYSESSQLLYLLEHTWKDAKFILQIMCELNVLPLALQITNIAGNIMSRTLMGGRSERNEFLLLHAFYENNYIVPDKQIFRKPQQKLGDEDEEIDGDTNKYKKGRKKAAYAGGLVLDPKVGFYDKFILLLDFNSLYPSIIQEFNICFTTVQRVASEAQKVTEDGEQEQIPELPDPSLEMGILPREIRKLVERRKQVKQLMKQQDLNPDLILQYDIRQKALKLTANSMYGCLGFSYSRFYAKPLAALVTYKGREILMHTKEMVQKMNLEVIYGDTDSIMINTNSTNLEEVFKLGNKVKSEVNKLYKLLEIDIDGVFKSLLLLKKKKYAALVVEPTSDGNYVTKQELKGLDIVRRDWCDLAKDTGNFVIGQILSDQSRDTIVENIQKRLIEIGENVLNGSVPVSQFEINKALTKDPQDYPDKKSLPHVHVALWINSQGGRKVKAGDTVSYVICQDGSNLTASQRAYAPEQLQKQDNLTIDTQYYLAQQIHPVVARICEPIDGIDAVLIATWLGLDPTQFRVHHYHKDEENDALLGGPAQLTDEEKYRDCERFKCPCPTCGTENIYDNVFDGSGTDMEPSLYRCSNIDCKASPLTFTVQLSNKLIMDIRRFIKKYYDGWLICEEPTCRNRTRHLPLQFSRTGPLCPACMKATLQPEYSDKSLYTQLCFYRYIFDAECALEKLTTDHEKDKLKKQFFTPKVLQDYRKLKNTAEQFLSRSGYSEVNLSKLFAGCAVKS
Assay: Human DNA polymerase α inhibition assay
Format: biochemical
Conditions: top concentration 200 µM
Protocol: The activities of human DNA polymerases α, β, and γ were measured in radiolabeled nucleotide incorporation assays. TP was prepared as a 10-point titration with 3-fold serial dilution in water. Reaction buffers for the DNA polymerase α and β assays both contained 20 mM Tris pH 7.5, 10 mM MgCl2, 50 μM EDTA, 200 μg/mL bovine serum albumin (BSA), 2 mM dithiothreitol (DTT), 1.6 μM each of dNTP (dATP, dCTP, dGTP, and dTTP), 20 μCi/mL [α33P]dATP, 0.1 mg/mL gapped activated fish sperm DNA template, test compound, and 0.005 U/μL DNA polymerase α or 0.0025 U/μL DNA polymerase β. The reaction buffer for DNA polymerase γ contained 20 mM Tris pH 8, 10 mM MgCl2, 50 mM KCl, 100 μg/mL BSA, 2 mM β-mercaptoethanol, 10 μM of each dNTP (dATP, dCTP, dGTP, and dTTP), 20 μCi/mL [α33P]dATP, 0.04 mg/mL gapped activated fish sperm DNA template, test compound, and 0.0003 μg/μL DNA polymerase γ. The 50-μL reactions were incubated at room temperature for 30 min (for β and γ) or 90 min (for α) before terminating with the addition of 50 μL 500 mM EDTA. The reaction mixtures were transferred to a Millipore DE81 filter plate (EMD Millipore; Hayward, CA), washed with 0.5 M sodium phosphate pH 7.0, and dried. After addition of 40 μL scintillant to each well, the incorporation of labeled dATP was determined with a microplate counter (TopCount NXT HTS; PerkinElmer, Shelton, CA, USA).

C#C[C@]1(COP(=O)(O)OP(=O)(O)OP(=O)(O)O)O[C@@H](n2ccc3c(N)nc(Cl)nc32)C[C@@H]1O [MK-8527-TP] showed an IC50 of 95 µM.
